Measurements as given in patent US8076487B2, “Pyridone derivative and herbicide” (Kumiai Chemical Industry Co., Ltd., priority 2006, dated 2011).

Key:
Type in all cases: in vivo
[1] = tested on: Japanese bulrush (Scirpus juncoides Roxb.); assay: Test Example 1: herbicidal effect by soil application to paddy field; conditions: paddy field soil application; active ingredient 1,000 g per 1 hectare; wettable powder added dropwise to water surface the day after sowing; examined on the 21st day after application
In short: (§1)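 Plants were sown in flooded (3 cm) paddy soil and evaluated for herbicidal effect 21 days after soil application in a greenhouse.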

[2] = tested on: early watergrass (Echinochloa oryzicola Vasing); assay: as above; conditions: paddy field soil application; active ingredient 1,000 g per 1 hectare; wettable powder added dropwise to water surface the day after sowing; examined on the 21st day after application
In short: as §1

[3] = tested on: heartshape false pickerelweed (Monochoria vaginalis (Burm.f.) C.Presl); assay: as above; conditions: paddy field soil application; active ingredient 1,000 g per 1 hectare; wettable powder added dropwise to water surface the day after sowing; examined on the 21st day after application
In short: as §1

[4] = tested on: barnyardgrass (Echinochloa crus-galli (L.) P. Beauv. var. crus-galli); assay: Test Example 3: herbicidal effect by application to upland field (foliage treatment); conditions: foliage treatment, 1,000 g active ingredient per 1 hectare, 14th day after application, greenhouse
Procedure: (§2) [table] Test Example 3 Test on Herbicidal Effect by Application to Upland Field In a 80 cm2 plastic pot, field soil was filled. Seeds of barnyardgrass (Echinochloa crus-galli (L.) P. Beauv. var. crus-galli), green foxtail (Setaria viridis (L.) P. Beauv.), velvetleaf (Abutilon theophrasti medicus), and slender amaranth (Amaranthus viridis L.) were sown and allowed to grow for two weeks in a greenhouse. Thereafter, the wettable powder prepared according to Formulation Example 1 was diluted in water and a 1,000 liter equivalent amount per 1 hectare so that the active ingredient becomes 1,000 g per 1 hectare was sprayed using a small sprayer from a top of the plants through its entire body for foliage treatment. Then, on the 14th day after the application to the plants grew in a greenhouse, the herbicidal effect was examined in accordance with a standard shown in Table 34.

[5] = tested on: green foxtail (Setaria viridis (L.) P. Beauv.); assay: as above; conditions: foliage treatment, 1,000 g active ingredient per 1 hectare, 14th day after application, greenhouse
Procedure: as §2

[6] = tested on: slender amaranth (Amaranthus viridis L.); assay: as above; conditions: foliage treatment, 1,000 g active ingredient per 1 hectare, 14th day after application, greenhouse
Procedure: as §2

[7] = tested on: velvetleaf (Abutilon theophrasti medicus); assay: as above; conditions: foliage treatment, 1,000 g active ingredient per 1 hectare, 14th day after application, greenhouse
Procedure: as §2

| SMILES | herbicidal effect, Scirpus juncoides Roxb. [1] | herbicidal effect, Echinochloa oryzicola Vasing [2] | herbicidal effect, Monochoria vaginalis (Burm. f.) C. Presl [3] | herbicidal effect, Barnyardgrass [4] | herbicidal effect, Green Foxtail [5] | herbicidal effect, Slender Amaranth [6] | herbicidal effect, Velvetleaf [7] |
| --- | --- | --- | --- | --- | --- | --- | --- |
| COC(=O)Nn1c(C(F)(F)F)ccc(C(=O)C2=C(O)CCCC2=O)c1=O [I-189] | 5 (90% or more of herbicidal effect and crop phytotoxicity) | 5 (90% or more of herbicidal effect and crop phytotoxicity) | 5 (90% or more of herbicidal effect and crop phytotoxicity) | 4 (70 to less than 90% of herbicidal effect and crop phytotoxicity) | 4 (70 to less than 90% of herbicidal effect and crop phytotoxicity) | 5 (90% or more of herbicidal effect and crop phytotoxicity) | 5 (90% or more of herbicidal effect and crop phytotoxicity) |
| CCN(C(=O)OC(C)(C)C)n1c(C(F)(F)F)ccc(C(=O)C2=C(O)CCCC2=O)c1=O [I-195] | 5 (90% or more of herbicidal effect and crop phytotoxicity) | 5 (90% or more of herbicidal effect and crop phytotoxicity) | 5 (90% or more of herbicidal effect and crop phytotoxicity) | 5 (90% or more of herbicidal effect and crop phytotoxicity) | 4 (70 to less than 90% of herbicidal effect and crop phytotoxicity) | 3 (50 to less than 70% of herbicidal effect and crop phytotoxicity) | 5 (90% or more of herbicidal effect and crop phytotoxicity) |
| CCn1c(C(F)F)ccc(C(=O)C2=C(O)CCCC2=O)c1=O [I-222] | 5 (90% or more of herbicidal effect and crop phytotoxicity) | 5 (90% or more of herbicidal effect and crop phytotoxicity) | 5 (90% or more of herbicidal effect and crop phytotoxicity) | 5 (90% or more of herbicidal effect and crop phytotoxicity) | 4 (70 to less than 90% of herbicidal effect and crop phytotoxicity) | 5 (90% or more of herbicidal effect and crop phytotoxicity) | 5 (90% or more of herbicidal effect and crop phytotoxicity) |
| Cc1ccc(C(=O)C2=C(O)CCCC2=O)c(=O)n1-c1ccccc1 [I-229] | 4 (70 to less than 90% of herbicidal effect and crop phytotoxicity) | 4 (70 to less than 90% of herbicidal effect and crop phytotoxicity) | 5 (90% or more of herbicidal effect and crop phytotoxicity) | 4 (70 to less than 90% of herbicidal effect and crop phytotoxicity) | 4 (70 to less than 90% of herbicidal effect and crop phytotoxicity) | 5 (90% or more of herbicidal effect and crop phytotoxicity) | 5 (90% or more of herbicidal effect and crop phytotoxicity) |
| CCCc1ccc(C(=O)C2=C(O)CCCC2=O)c(=O)n1-c1ccccc1 [I-231] | 5 (90% or more of herbicidal effect and crop phytotoxicity) | 5 (90% or more of herbicidal effect and crop phytotoxicity) | 5 (90% or more of herbicidal effect and crop phytotoxicity) | 4 (70 to less than 90% of herbicidal effect and crop phytotoxicity) | 3 (50 to less than 70% of herbicidal effect and crop phytotoxicity) | 4 (70 to less than 90% of herbicidal effect and crop phytotoxicity) | 4 (70 to less than 90% of herbicidal effect and crop phytotoxicity) |
| Cn1c(C(F)(F)F)ccc(C(=O)C2=C(O)CC(C)(C)CC2=O)c1=O [II-3] | 5 (90% or more of herbicidal effect and crop phytotoxicity) | 5 (90% or more of herbicidal effect and crop phytotoxicity) | 5 (90% or more of herbicidal effect and crop phytotoxicity) | 3 (50 to less than 70% of herbicidal effect and crop phytotoxicity) | 4 (70 to less than 90% of herbicidal effect and crop phytotoxicity) | 5 (90% or more of herbicidal effect and crop phytotoxicity) | 5 (90% or more of herbicidal effect and crop phytotoxicity) |
| CC1CC(C)C(O)=C(C(=O)c2ccc(C(F)(F)F)n(C)c2=O)C1=O (stereo not drawn) [II-7] | 5 (90% or more of herbicidal effect and crop phytotoxicity) | 5 (90% or more of herbicidal effect and crop phytotoxicity) | 5 (90% or more of herbicidal effect and crop phytotoxicity) | 4 (70 to less than 90% of herbicidal effect and crop phytotoxicity) | 4 (70 to less than 90% of herbicidal effect and crop phytotoxicity) | 5 (90% or more of herbicidal effect and crop phytotoxicity) | 5 (90% or more of herbicidal effect and crop phytotoxicity) |
| CCn1c(C(F)(F)F)ccc(C(=O)C2=C(O)C3CCC(C3)C2=O)c1=O (stereo not drawn) [III-2] | 5 (90% or more of herbicidal effect and crop phytotoxicity) | 5 (90% or more of herbicidal effect and crop phytotoxicity) | 5 (90% or more of herbicidal effect and crop phytotoxicity) | 5 (90% or more of herbicidal effect and crop phytotoxicity) | 5 (90% or more of herbicidal effect and crop phytotoxicity) | 5 (90% or more of herbicidal effect and crop phytotoxicity) | 5 (90% or more of herbicidal effect and crop phytotoxicity) |
| CCC(C)n1c(C(F)(F)F)ccc(C(=O)C2=C(O)C3CCC(C3)C2=O)c1=O (stereo not drawn) [III-8] | 5 (90% or more of herbicidal effect and crop phytotoxicity) | 5 (90% or more of herbicidal effect and crop phytotoxicity) | 5 (90% or more of herbicidal effect and crop phytotoxicity) | 5 (90% or more of herbicidal effect and crop phytotoxicity) | 5 (90% or more of herbicidal effect and crop phytotoxicity) | 3 (50 to less than 70% of herbicidal effect and crop phytotoxicity) | 5 (90% or more of herbicidal effect and crop phytotoxicity) |
| CSCCCn1c(C(F)(F)F)ccc(C(=O)C2=C(O)C3CCC(C3)C2=O)c1=O (stereo not drawn) [III-31] | 5 (90% or more of herbicidal effect and crop phytotoxicity) | 5 (90% or more of herbicidal effect and crop phytotoxicity) | 5 (90% or more of herbicidal effect and crop phytotoxicity) | 5 (90% or more of herbicidal effect and crop phytotoxicity) | 5 (90% or more of herbicidal effect and crop phytotoxicity) | 5 (90% or more of herbicidal effect and crop phytotoxicity) | 5 (90% or more of herbicidal effect and crop phytotoxicity) |
| O=C(C1=C(O)C2C=CC(C2)C1=O)c1ccc(C(F)(F)F)n(CC2CCCO2)c1=O (stereo not drawn) [III-43] | 5 (90% or more of herbicidal effect and crop phytotoxicity) | 5 (90% or more of herbicidal effect and crop phytotoxicity) | 5 (90% or more of herbicidal effect and crop phytotoxicity) | 5 (90% or more of herbicidal effect and crop phytotoxicity) | 3 (50 to less than 70% of herbicidal effect and crop phytotoxicity) | 5 (90% or more of herbicidal effect and crop phytotoxicity) | 5 (90% or more of herbicidal effect and crop phytotoxicity) |
| COCC(C)n1c(C(F)(F)F)ccc(C(=O)C2=C(O)C3C=CC(C3)C2=O)c1=O (stereo not drawn) [III-44] | 5 (90% or more of herbicidal effect and crop phytotoxicity) | 5 (90% or more of herbicidal effect and crop phytotoxicity) | 5 (90% or more of herbicidal effect and crop phytotoxicity) | 4 (70 to less than 90% of herbicidal effect and crop phytotoxicity) | 5 (90% or more of herbicidal effect and crop phytotoxicity) | 5 (90% or more of herbicidal effect and crop phytotoxicity) | 5 (90% or more of herbicidal effect and crop phytotoxicity) |
